Numbered stars: 1 amine (or outer) side, 2 acyl side, 3 side chain; on linkers, the order of the positions; unused ones are H or OH. Bridge positions count the residues as written; N and C are the ends. Square brackets hold non-standard residues; d marks the D form. Peptide text beside a SMILES is read from it. X4 = CC(C)c1cccc2c(C[C@H](N[*:1])C(=O)[*:2])c[nH]c12; Trp(7-Me) = Cc1cccc2c(C[C@H](N)C(=O)O)c[nH]c12; Trp(1-Me) = Cn1cc(C[C@H](N)C(=O)O)c2ccccc21; Abu(4-yl) = O=C([C@H](CC[*:3])N[*:1])[*:2]; 2Nal = N[C@@H](Cc1ccc2ccccc2c1)C(=O)O; AEF = NCCOc1ccc(C[C@H](N)C(=O)O)cc1; Cit = NC(=O)NCCC[C@H](N)C(=O)O; Pen = CC(C)(S)[C@H](N)C(=O)O; αMeK = C[C@](N)(CCCCN)C(=O)O; βAla = NCCC(=O)O
Tests used:
in vitro [1] = conditions: human, 20% fecal homogenate (supernatant), anaerobic, pH 6.8
Procedure: Fecal homogenate (20%) was prepared by adding 4 mL of growth medium (1 liter contains 2 g peptone water powder, 2 g yeast extract, 0.1 g NaCl, 0.04 g KH2PO4, 0.01 g CaCl2·6H2O, 0.01 g MgSO4·7H2O, 2 mL Tween 80, 0.5 g bile salts, 0.5 g L-cysteine HCl, 2 g NaHCO3, and 10 μL Vitamin K, pH adjusted to 6.8, and sterilized by filtration through a 0.22 μm filter) to every gram of feces (pooled freshly collected human or cynomolgus monkey feces). The suspension was vortexed to break up large clumps, and homogenized using a bead mill homogenizer. Centrifuged the homogenate at 2800×g for 15 min. The supernatant is taken out and used for incubations. DMSO stocks (10 mM) were first prepared for the test compounds. Incubations were performed in an anaerobic chamber conditioned at 37° C. Aliquots of the DMSO solutions were dosed into 1.0 mL aliquots of 20% fecal homogenate, which are pre-warmed to 37° C. The final test compound concentration was 20 μM. At each timepoint (0, 20 min, 1, 3, 6, or 24 hours), 100 μL aliquot of each incubation mixture is taken out and added to separate tubes containing 300 μL of 50% acetonitrile/50% methanol and an internal standard to terminate the reaction. Samples were taken out of the anaerobic chamber and stored at 4° C. until the end of the experiment. After the final timepoint is sampled, the tubes were mixed and then centrifuged at 3,000 rpm for 10 minutes. Aliquots of the supernatant were removed, diluted 1:1 into distilled water containing 0.1% formic acid, and analyzed by LC/MS/MS. Percent remaining at each timepoint was calculated based on the peak area response ratio of test to compound to internal standard. Time 0 was set to 100%, and all later timepoints were calculated relative to time 0. Half-lives were calculated by fitting to a first-order exponential decay equation using Graphpad or Excel.

in vitro [2] = assay type: in vitro ADME; design: half-life: dose or concentration left out as unconfirmed; conditions: simulated intestinal fluid (SIF) with pancreatin, pH 6.8, 37° C., § matrix is 100 fold dilution of standard SIF concentration, read-out: SIF t½ (converted)
in vitro [3] = conditions: cynomolgus monkey, 20% fecal homogenate (supernatant), anaerobic, pH 6.8
IL-23R = target: T1, IL-23R (Homo sapiens, UniProt Q5VWK5); assay: DB cells IL23R pSTAT3 cell assay (pStat3 HTRF); assay type: cell-based; conditions: Table E3; DB cells, IL-23 0.5 nM, 30 minutes at 37° C.; read-out: pStat3 HTRF (IC50)
T1 sequence (Q5VWK5 24-629): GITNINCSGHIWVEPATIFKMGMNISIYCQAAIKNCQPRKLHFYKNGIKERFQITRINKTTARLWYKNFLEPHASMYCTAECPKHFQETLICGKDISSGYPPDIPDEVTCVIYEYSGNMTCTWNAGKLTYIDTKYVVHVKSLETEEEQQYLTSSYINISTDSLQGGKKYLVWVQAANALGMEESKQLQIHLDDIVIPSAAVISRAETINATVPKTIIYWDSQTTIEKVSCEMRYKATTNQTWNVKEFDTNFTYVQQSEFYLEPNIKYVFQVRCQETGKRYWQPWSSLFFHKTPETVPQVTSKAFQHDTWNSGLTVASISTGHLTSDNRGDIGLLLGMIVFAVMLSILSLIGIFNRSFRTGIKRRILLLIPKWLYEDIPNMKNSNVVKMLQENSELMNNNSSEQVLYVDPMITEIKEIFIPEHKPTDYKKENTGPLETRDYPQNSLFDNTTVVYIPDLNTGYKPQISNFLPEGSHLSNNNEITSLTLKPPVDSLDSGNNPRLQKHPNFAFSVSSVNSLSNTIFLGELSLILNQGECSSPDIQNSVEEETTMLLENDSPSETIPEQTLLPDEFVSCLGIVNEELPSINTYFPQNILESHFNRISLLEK
Outline: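 HTRF readout of lysate pSTAT3 (Tyr705) after two-plate processing. Peptide dilution series co-incubated with IL-23 (0.5 nM final) on 5×10E5 IL-23R-expressing DB cells per well, 30 min, 37 °C.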

in vitro [4] = conditions: both, SD, rat, plasma (EDTA)

| SMILES | half-life at 20 μM (in vitro [1]) | half-life (in vitro [2]) | half-life at 20 μM (in vitro [3]) | IC50 (IL-23R) | half-life at 20 μM (in vitro [4]) |
| --- | --- | --- | --- | --- | --- |
| CC(=O)N[C@H]1CCSC[C@@H](C(=O)N[C@@H](Cc2ccc(OCCN)cc2)C(=O)N[C@@H](Cc2ccc3ccccc3c2)C(=O)NC2(C(=O)N[C@@H](CCC(=O)O)C(=O)N[C@@H](CC(N)=O)C(=O)NCCC(N)=O)CCOCC2)NC(=O)[C@H](CCC(N)=O)NC(=O)[C@H](Cc2c[nH]c3c(C)cccc23)NC(=O)[C@H]([C@@H](C)O)NC(=O)[C@H](CCC(N)=O)NC1=O [compound 204] | 1 h | 19 h | 5 h | 1 to 10 nM |  |
| CC(=O)NCCCC[C@H](NC(=O)[C@](C)(CCCCN)NC(=O)[C@H](Cc1ccc2ccccc2c1)NC(=O)[C@H](Cc1ccc(OCCN)cc1)NC(=O)[C@H]1NC(=O)[C@H](CCCNC(N)=O)NC(=O)[C@H](Cc2c[nH]c3c(C)cccc23)NC(=O)[C@H]([C@@H](C)O)NC(=O)[C@H](CC(N)=O)NC(=O)[C@@H](NC(C)=O)C(C)(C)SSC1(C)C)C(=O)N[C@@H](CC(N)=O)C(=O)N[C@H](CCCNC(=N)N)C(N)=O [compound 256] (Ac-[Pen]NT[Trp(7-Me)][Cit][Pen][AEF][2Nal][αMeK]K(Ac)N[dR]-NH2; disulfide 1-6) | > 24 h |  | > 24 h | < 1 nM | > 24 h |
| CC(=O)NCCCC[C@H](NC(=O)[C@](C)(CCCCN)NC(=O)[C@H](Cc1ccc2ccccc2c1)NC(=O)[C@H](Cc1ccc(OCCN)cc1)NC(=O)[C@H]1NC(=O)[C@H](CCCNC(N)=O)NC(=O)[C@H](Cc2c[nH]c3c(C)cccc23)NC(=O)[C@H]([C@@H](C)O)NC(=O)[C@H](CC(N)=O)NC(=O)[C@@H](NC(C)=O)C(C)(C)SSC1(C)C)C(=O)N[C@@H](CC(N)=O)C(=O)N[C@@H](CO)C(N)=O [compound 260] (Ac-[Pen]NT[Trp(7-Me)][Cit][Pen][AEF][2Nal][αMeK]K(Ac)NS-NH2; disulfide 1-6) | 15 h |  | 3 h | < 1 nM | > 24 h |
| CC(=O)NCCCC[C@H](NC(=O)[C@](C)(CCCCN)NC(=O)[C@H](Cc1ccc2ccccc2c1)NC(=O)[C@H](Cc1ccc(OCCN)cc1)NC(=O)[C@H]1NC(=O)[C@H](CCCNC(N)=O)NC(=O)[C@H](Cc2c[nH]c3c(C)cccc23)NC(=O)[C@H]([C@@H](C)O)NC(=O)[C@H](CC(N)=O)NC(=O)[C@@H](NC(C)=O)C(C)(C)SSC1(C)C)C(=O)N[C@@H](CC(N)=O)C(=O)N[C@H](C(N)=O)[C@@H](C)O [compound 262] (Ac-[Pen]NT[Trp(7-Me)][Cit][Pen][AEF][2Nal][αMeK]K(Ac)NT-NH2; disulfide 1-6) | 15 h |  | 3 h | 1 to 10 nM | > 24 h |
| CC(=O)NCCCC[C@H](NC(=O)[C@](C)(CCCCN)NC(=O)[C@H](Cc1ccc2ccccc2c1)NC(=O)[C@H](Cc1ccc(OCCN)cc1)NC(=O)[C@H]1NC(=O)[C@H](CCCNC(N)=O)NC(=O)[C@H](Cc2c[nH]c3c(C)cccc23)NC(=O)[C@H]([C@@H](C)O)NC(=O)[C@H](CC(N)=O)NC(=O)[C@@H](NC(C)=O)C(C)(C)SSC1(C)C)C(=O)N[C@@H](CC(N)=O)C(=O)N[C@@H](Cc1ccc(O)cc1)C(N)=O [compound 266] (Ac-[Pen]NT[Trp(7-Me)][Cit][Pen][AEF][2Nal][αMeK]K(Ac)NY-NH2; disulfide 1-6) | 16 h |  | 7 h | 1 to 10 nM | > 24 h |
| CC(=O)NCCCC[C@H](NC(=O)[C@](C)(CCCCN)NC(=O)[C@H](Cc1ccc2ccccc2c1)NC(=O)[C@H](Cc1ccc(OCCN)cc1)NC(=O)[C@H]1NC(=O)[C@H](CCC(N)=O)NC(=O)[C@H](Cc2c[nH]c3c(C)cccc23)NC(=O)[C@H]([C@@H](C)O)NC(=O)[C@H](CC(N)=O)NC(=O)[C@@H](NC(C)=O)C(C)(C)SSC1(C)C)C(=O)N[C@@H](CC(C)C)C(=O)NCCC(N)=O [compound 269] | > 24 h |  | > 24 h | 1 to 10 nM | > 24 h |
| CC(=O)NCCCC[C@@H]1NC(=O)[C@H](Cc2c[nH]c3c(C)cccc23)NC(=O)[C@H]([C@@H](C)O)NC(=O)[C@H](CC(N)=O)NC(=O)[C@@H](NC(C)=O)C(C)(C)SSC(C)(C)[C@@H](C(=O)N[C@@H](Cc2ccc(OCCN)cc2)C(=O)N[C@@H](Cc2ccc3ccccc3c2)C(=O)N[C@@](C)(CCCCN)C(=O)N[C@@H](CCCCNC(C)=O)C(=O)NCCC(=O)NCCC(N)=O)NC1=O [compound 270] | > 24 h |  | > 24 h | 1 to 10 nM | > 24 h |
| CC(=O)NCCCC[C@H](NC(=O)[C@](C)(CCCCN)NC(=O)[C@H](Cc1cn(C)c2ccccc12)NC(=O)[C@H](Cc1ccc(OCCN)cc1)NC(=O)[C@H]1NC(=O)[C@H](CCC(N)=O)NC(=O)[C@H](Cc2c[nH]c3c(C)cccc23)NC(=O)[C@H]([C@@H](C)O)NC(=O)[C@H](CC(N)=O)NC(=O)[C@@H](NC(C)=O)C(C)(C)SSC1(C)C)C(=O)N[C@@H](CC(N)=O)C(=O)NCCC(N)=O [compound 283] (Ac-[Pen]NT[Trp(7-Me)]Q[Pen][AEF][Trp(1-Me)][αMeK]K(Ac)N[βAla]-NH2; disulfide 1-6) | > 24 h |  | 17 h | 1 to 10 nM | > 24 h |
| CC(=O)NCCCC[C@@H]1NC(=O)[C@H](Cc2c[nH]c3c(C(C)C)cccc23)NC(=O)[C@H]([C@@H](C)O)NC(=O)[C@H](CC(N)=O)NC(=O)[C@@H](NC(C)=O)C(C)(C)SSC(C)(C)[C@@H](C(=O)N[C@@H](Cc2ccc(OCCN)cc2)C(=O)N[C@@H](Cc2ccc3ccccc3c2)C(=O)N[C@@](C)(CCCCN)C(=O)N[C@@H](CCCCNC(C)=O)C(=O)N[C@@H](CC(N)=O)C(=O)N[C@H](CC(C)C)C(N)=O)NC1=O [compound 286] (Ac-[Pen]NT[X4]K(Ac)[Pen][AEF][2Nal][αMeK]K(Ac)N[dL]-NH2; disulfide 1-6) | > 24 h |  | > 24 h | 1 to 10 nM | > 24 h |
| CC(=O)NCCCC[C@H](NC(=O)[C@](C)(CCCCN)NC(=O)[C@H](Cc1ccc2ccccc2c1)NC(=O)[C@H](Cc1ccc(OCCN)cc1)NC(=O)[C@H]1NC(=O)[C@H](CCCCNC(=O)CC(C)C)NC(=O)[C@H](Cc2c[nH]c3c(C)cccc23)NC(=O)[C@H]([C@@H](C)O)NC(=O)[C@H](CC(N)=O)NC(=O)[C@@H](NC(C)=O)C(C)(C)SSC1(C)C)C(=O)N[C@@H](CC(N)=O)C(=O)N[C@H](CC(C)C)C(N)=O [compound 315] |  | 9 h |  | 1 to 10 nM |  |
| CC(=O)NCCCC[C@H](NC(=O)[C@](C)(CCCCN)NC(=O)[C@H](Cc1ccc2ccccc2c1)NC(=O)[C@H](Cc1ccc(OCCN)cc1)NC(=O)[C@H]1NC(=O)[C@H](CCCCNC(=O)C2CCCCC2)NC(=O)[C@H](Cc2c[nH]c3c(C)cccc23)NC(=O)[C@H]([C@@H](C)O)NC(=O)[C@H](CC(N)=O)NC(=O)[C@@H](NC(C)=O)C(C)(C)SSC1(C)C)C(=O)N[C@@H](CC(N)=O)C(=O)N[C@H](CC(C)C)C(N)=O [compound 316] |  | 7 h |  | 1 to 10 nM |  |
| CC(=O)NCCCC[C@H](NC(=O)[C@](C)(CCCCN)NC(=O)[C@H](Cc1ccc2ccccc2c1)NC(=O)[C@H](Cc1ccc(OCCN)cc1)NC(=O)[C@H]1NC(=O)[C@H](CCCCNC(=O)CN)NC(=O)[C@H](Cc2c[nH]c3c(C)cccc23)NC(=O)[C@H]([C@@H](C)O)NC(=O)[C@H](CC(N)=O)NC(=O)[C@@H](NC(C)=O)C(C)(C)SSC1(C)C)C(=O)N[C@@H](CC(N)=O)C(=O)N[C@H](CC(C)C)C(N)=O [compound 320] |  | 12 h |  | < 1 nM |  |
| CC(=O)NCCCC[C@H](NC(=O)[C@](C)(CCCCN)NC(=O)[C@H](Cc1ccc2ccccc2c1)NC(=O)[C@H](Cc1ccc(OCCN)cc1)NC(=O)[C@H]1NC(=O)[C@H](CCCCNC(=O)CCN)NC(=O)[C@H](Cc2c[nH]c3c(C)cccc23)NC(=O)[C@H]([C@@H](C)O)NC(=O)[C@H](CC(N)=O)NC(=O)[C@@H](NC(C)=O)C(C)(C)SSC1(C)C)C(=O)N[C@@H](CC(N)=O)C(=O)N[C@H](CC(C)C)C(N)=O [compound 321] |  | 3 h |  | 1 to 10 nM |  |
| CC(=O)NCCCC[C@@H]1NC(=O)[C@H](Cc2c[nH]c3c(C)cccc23)NC(=O)[C@H]([C@@H](C)O)NC(=O)[C@H](CCC(N)=O)NC(=O)[C@@H](NC(=O)[C@@H](CCCNC(=N)N)NC(C)=O)CCSC[C@@H](C(=O)N[C@@H](Cc2ccc(OCCN)cc2)C(=O)N[C@@H](Cc2ccc3ccccc3c2)C(=O)N[C@@](C)(CCCCN)C(=O)N[C@@H](CCCCNC(C)=O)C(=O)N[C@@H](CC(N)=O)C(=O)N[C@H](CCCCN)C(N)=O)NC1=O [compound 324] (Ac-[dR][Abu(4-yl)]QT[Trp(7-Me)]K(Ac)C[AEF][2Nal][αMeK]K(Ac)N[dK]-NH2; thioether 2-7) |  | 1 h |  | 10 to 100 nM |  |
